# Biological target: T1, glucocorticoid receptor (Homo sapiens, UniProt P04150)
# T1 construct: endogenous in cells
# T1 sequence (P04150 1-777): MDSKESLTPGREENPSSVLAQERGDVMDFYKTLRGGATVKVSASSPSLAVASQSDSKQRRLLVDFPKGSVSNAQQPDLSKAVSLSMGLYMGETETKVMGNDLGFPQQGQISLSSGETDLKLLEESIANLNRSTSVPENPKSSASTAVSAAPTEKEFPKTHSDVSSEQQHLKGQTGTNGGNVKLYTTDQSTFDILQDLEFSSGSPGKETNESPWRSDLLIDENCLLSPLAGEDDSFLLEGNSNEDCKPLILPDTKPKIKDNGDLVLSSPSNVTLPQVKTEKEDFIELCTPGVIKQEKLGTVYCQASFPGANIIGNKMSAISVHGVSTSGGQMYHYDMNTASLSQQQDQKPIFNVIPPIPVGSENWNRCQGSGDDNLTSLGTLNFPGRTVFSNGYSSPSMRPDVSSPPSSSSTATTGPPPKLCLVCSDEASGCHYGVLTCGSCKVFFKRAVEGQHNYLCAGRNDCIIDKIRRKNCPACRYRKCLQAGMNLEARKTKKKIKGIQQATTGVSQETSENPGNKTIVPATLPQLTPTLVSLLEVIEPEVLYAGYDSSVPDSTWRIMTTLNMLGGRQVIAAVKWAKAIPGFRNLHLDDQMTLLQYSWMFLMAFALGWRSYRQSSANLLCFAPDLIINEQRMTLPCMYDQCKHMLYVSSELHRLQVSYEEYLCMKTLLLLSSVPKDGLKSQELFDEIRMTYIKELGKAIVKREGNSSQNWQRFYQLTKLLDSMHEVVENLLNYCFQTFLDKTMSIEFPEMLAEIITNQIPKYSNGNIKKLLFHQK
# Assay: Ligand binding assay (GR BIND)
# How it was run: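 Cytosol from freeze–thawed cells in TEGM (pH 7.2, 10 mM molybdate) was incubated overnight at 4 °C with compound and [3H]-dexamethasone trace (added as 6 nM solution), 2% EtOH final. Bound ligand was captured on hydroxylapatite, filtered, washed and scintillation counted. Values were calculated with dexamethasone as reference.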
row,Ki [nM],Structure (SMILES)
1,1,"Cn1cc(S(=O)(=O)N(CC2CCCO2)C[C@H]2CCC3=Cc4c(cnn4-c4ccc(F)cc4)C[C@@]32C)c(C(F)(F)F)n1 (stereo partly drawn) [Example 175, N-{[(4αR,5S)-1-(4-fluorophenyl)-4α-methyl-1,4,4α,5,6,7-hexahydrocyclopenta[f]indazol-5-yl]methyl}-1-methyl-N-(tetrahydrofuran-2-ylmethyl)-3-(trifluoromethyl)-1H-pyrazole-4-sulfonamide]"
2,0.7,"C[C@]12Cc3cnn(-c4ccc(F)cc4)c3C=C1CC[C@@H]2CN(CC#N)S(=O)(=O)c1cc(F)c(F)cc1F [Example 47, N-(cyanomethyl)-2,4,5-trifluoro-N-{[(4αR,5S)-1-(4-fluorophenyl)-4α-methyl-1,4,4α,5,6,7-hexahydrocyclopenta[f]indazol-5-yl]methyl}benzenesulfonamide]"
3,5.3,"C[C@]12Cc3cnn(-c4ccc(F)cc4)c3C=C1CC[C@@H]2CN(CC#N)S(=O)(=O)c1cc(Cl)c(Cl)s1 [Example 24, 4,5-dichloro-N-(cyanomethyl)-N-{[(4αR,5S)-1-(4-fluorophenyl)-4α-methyl-1,4,4α,5,6,7-hexahydrocyclopenta[f]indazol-5-yl]methyl}thiophene-2-sulfonamide]"
4,8.1,"CN1CCOc2cc(S(=O)(=O)N(CC#N)C[C@H]3CCC4=Cc5c(cnn5-c5ccc(F)cc5)C[C@@]43C)ccc21 [Example 39, N-(cyanomethyl)-N-{[(4αR,5S)-1-(4-fluorophenyl)-4α-methyl-1,4,4α,5,6,7-hexahydrocyclopenta[f]indazol-5-yl]methyl}-4-methyl-3,4-dihydro-2H-1,4-benzoxazine-7-sulfonamide]"
5,2,"C[C@]12Cc3cnn(-c4ccc(F)cc4)c3C=C1CC[C@@H]2CN(CC1CCCO1)S(=O)(=O)c1ccc(C(N)=O)cc1 (stereo partly drawn) [Example 191, 4-{[{[(4αR,5S)-1-(4-fluorophenyl)-4α-methyl-1,4,4α,5,6,7-hexahydrocyclopenta[f]indazol-5-yl]methyl}(tetrahydrofuran-2-ylmethyl)amino]sulfonyl}benzamide]"

# Continued, molecule first:
row,Structure (SMILES),Ki [nM]
1,"C[C@]12Cc3cnn(-c4ccc(F)cc4)c3C=C1CC[C@@H]2CN(CCCc1ccccc1)S(=O)(=O)c1ccccc1F [Example 195, 2-fluoro-N-{[(4αR,5S)-1-(4-fluorophenyl)-4α-methyl-1,4,4α,5,6,7-hexahydrocyclopenta[f]indazol-5-yl]methyl}-N-(3-phenylpropyl)benzenesulfonamide]",0.6
2,"COC(=O)c1ccccc1CS(=O)(=O)N(C[C@H]1CCC2=Cc3c(cnn3-c3ccc(F)cc3)C[C@@]21C)C[C@@H](C)O [Example 180, methyl 2-[({{[(4αR,5S)-1-(4-fluorophenyl)-4α-methyl-1,4,4α,5,6,7-hexahydrocyclopenta[f]indazol-5-yl]methyl}[(2R)-2-hydroxypropyl]amino}sulfonyl)methyl]benzoatee]",1.8
3,"C[C@]12Cc3cnn(-c4ccc(F)cc4)c3C=C1CC[C@@H]2CN(CCO)S(=O)(=O)Cc1ccccc1C(N)=O [Example 198, 2-({[{[(4αR,5S)-1-(4-fluorophenyl)-4α-methyl-1,4,4α,5,6,7-hexahydrocyclopenta[f]indazol-5-yl]methyl}(2-hydroxyethyl)amino]sulfonyl}methyl)benzamide]",14.3
4,"COCCN(C[C@H]1CCC2=Cc3c(cnn3-c3ccc(F)cc3)C[C@@]21C)S(=O)(=O)c1cn(C)nc1C(F)(F)F [Example 172, N-{[(4αR,5S)-1-(4-fluorophenyl)-4α-methyl-1,4,4α,5,6,7-hexahydrocyclopenta[f]indazol-5-yl]methyl}-N-(2-methoxyethyl)-1-methyl-3-(trifluoromethyl)-1H-pyrazole-4-sulfonamide]",0.6
5,"C[C@@H](O)CN(C[C@H]1CCC2=Cc3c(cnn3-c3ccc(F)cc3)C[C@@]21C)S(=O)(=O)Cc1ccccc1C(N)=O [Example 184, 2-[({{[(4αR,5S)-1-(4-fluorophenyl)-4α-methyl-1,4,4α,5,6,7-hexahydrocyclopenta[f]indazol-5-yl]methyl}[(2R)-2-hydroxypropyl]amino}sulfonyl)methyl]benzamide]",9.6

# — patent US8299048B2, “Hexahydrocyclopentyl[f]indazole sulfonamides and derivatives thereof as selective glucocorticoid receptor modulators” (Merck Sharp & Dohme Corp., priority 2008, dated 2012)
